From patent publication US20230067926A1, “SYSTEMS AND METHODS FOR MONITORING PLATELET ACTIVATION” (The Regents of the University of Michigan, priority 2021, published 2023)

Experiments:
[1] = test system: activated platelets in whole blood; assay: PDA liposome-9F9 microarray detection of activated platelets in whole blood; format: cell-based, human
Procedure: To fabricate the PDA liposome Microarray, the liposomes were covalently immobilized on amine-modified glass slides through the amine-epoxy chemistry. 0.5 mM PDA-epoxy liposome solution was spotted on amine-coated glass slides with a manual microarrayer (VP 475, V&P scientific, INC) and was incubated at 5° C. for 24 hrs to prevent fast drying of the spotted solution. After removing the unbound liposomes by rinsing with 5 mM of pH 8 HEPES buffer, the PDA liposome-spotted slides were incubated with 0.06 mg/ml of 9F9 antibody in 5 mM of pH 8 HEPES buffer for 1 hr. After removing the unbound antibodies by rinsing with 5 mM of pH 8 HEPES buffer. […]
Detection of Activated Platelet with PDA Liposome Microarray. […] After 20 mins of incubation, fluorescence microscope images were obtained on Olympus BX 71 microscope equipped with a mercury lamp and a cut-off filter of 540 nm excitation and 600 nm emission. For fluorescence signal intensity measurement, the fabricated PDA liposome-9F9 microarray was placed on top of a 96-well plate and the combined substrates were inserted into a plate reader. Fluorescence emission intensities at 634 nm of total 120 microarray spots from three different devices were individually measured by using the excitation wavelength of 548 nm. […]

[2] = test system: collagen and epinephrine stimulated human platelets; assay: cells; settings: Platelet, read-out: IC50 of inhibition of collagen-stimulated platelet activation
Procedure: Fluorescence-activated Cell Sorting Analysis. […] Collagen (40 μg/ml) was then added (4 μl) and incubated for 2 min at room temperature in all tubes. Platelet activation was measured by using 20 μl of the anti-9F9 antibody-FITC and 10 μl of the constitutive platelet marker, anti-CD61-PE (Phycierythrin). As a control for the anti-9F9 antibody, 10 μl of the isotype control, anti-mouse IgG1-FITC, was used with 10 μl of anti-CD61-PE in a separate tube. The antibodies were incubated at room temperature in the dark for 15 minutes. After the incubation, 700 μl of 1% formalin/dPBS was added to each tube and stored at 4° C. for up to 24 hrs post fixing until ready to run the fluorescence-activated cell sorting (FACS) analysis on a FACSCalibur flow cytometer (Beckton Dickenson San Jose, Calif.). CellQuest software (Beckton Dickenson San Jose, Calif.) was employed for the data analysis.
Cell populations were identified for data collection by their log forward scatter (FSC) and log side scatter (SSC) light profiles. […] Mean fluorescence intensity (MFI) of the anti-9F9 immunostaining was quantitated by a FITC (FL1) versus PE (FL2) log plot analysis. […] The adjusted WI was expressed as the geometric mean channel fluorescence minus the appropriate isotype control. The platelet reactivity index (PRI) was calculated by the following equation: […]

| Compound | limit of detection of Tirofiban in the sample (fluorescence signal decrease) ([1]; whole blood with collagen, 20 mins incubation, PDA microarray fluorescence (FIG. 3)) [µM] | IC50 [2] [pM] | red fluorescence intensity with added collagen relative to device without it ([1]; whole blood samples with and without 40 mg/ml of collagen, 20-min incubation (FIG. 2)) [times] |
| --- | --- | --- | --- |
| CCCCS(=O)(=O)N[C@@H](Cc1ccc(OCCCCC2CCNCC2)cc1)C(=O)O [Tirofiban] | 0.16 | ~1.5 |  |
| collagen |  |  | 2.8 |
